The source of these data is the kinase profiling compilation of Christmann-Franck et al. (2016).

Test [1] concerns ABL1 (human), P00519 [F317I]. Put plainly: KINOMEscan competition binding. The note with it: compound 10.0 µM.
The next test addresses DCLK1 (human) (UniProt O15075). Put plainly: KINOMEscan competition binding. The note with it: compound 10.0 µM.
A further test concerns the target DCLK2 (human) (UniProt Q8N568). Put plainly: KINOMEscan competition binding. The note with it: compound 10.0 µM.
In the next test the target is DCLK3 (human) (UniProt Q9C098). Put plainly: KINOMEscan competition binding. As to conditions: compound 10.0 µM.
The target of another test is FLT3 (human) (UniProt P36888). The test can be described thus: KINOMEscan competition binding. The note with it: compound 10.0 µM.
The test system of test [2] is FLT3 (human), P36888 [D835H]. Put plainly: KINOMEscan competition binding. As to conditions: compound 10.0 µM.
Test [3] concerns FLT3 (human), P36888 [D835Y]. The test can be described thus: KINOMEscan competition binding. The note with it: compound 10.0 µM.
The test system of test [4] is FLT3 (human), P36888 [ITD]. The test can be described thus: KINOMEscan competition binding. As to conditions: compound 10.0 µM.
For test [5], the system named is FLT3 (human), P36888 [K663Q]. The test can be described thus: KINOMEscan competition binding. As to conditions: compound 10.0 µM.
For test [6], the system named is FLT3 (human), P36888 [N841I]. The test can be described thus: KINOMEscan competition binding. The note with it: compound 10.0 µM.
For another test, the target named is MAPK7 (human) (UniProt Q13164). Put plainly: KINOMEscan competition binding. The note with it: compound 10.0 µM.
For the next test, the target named is MYLK4 (human) (UniProt Q86YV6). The test can be described thus: KINOMEscan competition binding. The note with it: compound 10.0 µM.
The target of a further test is PIP5K1A (human) (UniProt Q99755). Put plainly: KINOMEscan competition binding. The note with it: compound 10.0 µM.
Another test concerns the target PTK6 (human) (UniProt Q13882). Put plainly: KINOMEscan competition binding. The note with it: compound 10.0 µM.
A further test addresses RPS6KA1 KD2 (human) (UniProt Q15418). The test can be described thus: KINOMEscan competition binding. As to conditions: compound 10.0 µM.
The next test has as its target RPS6KA6 KD2 (human) (UniProt Q9UK32). Put plainly: KINOMEscan competition binding. As to conditions: compound 10.0 µM.
The target in the next test is TNK2 (human) (UniProt Q07912). Put plainly: KINOMEscan competition binding. As to conditions: compound 10.0 µM.
The target in another test is CDK11A (human) (UniProt Q9UQ88). Put plainly: KINOMEscan competition binding. As to conditions: compound 10.0 µM.
For a further test, the target named is ALK (human) (UniProt Q9UM73). Put plainly: KINOMEscan competition binding. The note with it: compound 10.0 µM.
The next test deals with CAMKK2 (human) (UniProt Q96RR4). The test can be described thus: KINOMEscan competition binding. The note with it: compound 10.0 µM.
Sequence of CAMKK2 (human) (Q96RR4 whole entry, looked up): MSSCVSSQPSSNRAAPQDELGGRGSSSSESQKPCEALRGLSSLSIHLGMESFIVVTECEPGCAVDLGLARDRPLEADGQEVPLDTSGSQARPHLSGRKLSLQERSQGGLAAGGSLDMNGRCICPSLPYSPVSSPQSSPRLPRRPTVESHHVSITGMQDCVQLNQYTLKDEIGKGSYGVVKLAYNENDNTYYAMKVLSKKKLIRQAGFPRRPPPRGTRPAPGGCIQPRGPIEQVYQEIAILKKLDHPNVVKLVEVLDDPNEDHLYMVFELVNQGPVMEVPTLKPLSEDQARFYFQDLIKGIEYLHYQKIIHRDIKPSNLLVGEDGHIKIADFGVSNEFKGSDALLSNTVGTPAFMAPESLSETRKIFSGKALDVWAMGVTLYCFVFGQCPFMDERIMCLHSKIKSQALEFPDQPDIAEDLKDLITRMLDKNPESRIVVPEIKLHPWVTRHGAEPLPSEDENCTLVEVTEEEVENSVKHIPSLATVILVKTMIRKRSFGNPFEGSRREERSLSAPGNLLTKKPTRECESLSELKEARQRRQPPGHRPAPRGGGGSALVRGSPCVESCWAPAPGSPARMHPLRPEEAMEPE
The test system of test [7] is EGFR (human), P00533 [747-751 del / S ins]. The test can be described thus: KINOMEscan competition binding. The note with it: compound 10.0 µM.
Test [8] deals with EGFR (human), P00533 [A750P; 747-749 del]. The test can be described thus: KINOMEscan competition binding. As to conditions: compound 10.0 µM.
The test system of test [9] is EGFR (human), P00533 [G719C; 746-750 del]. Put plainly: KINOMEscan competition binding. The note with it: compound 10.0 µM.
Test [10] has as its system EGFR (human), P00533 [L861Q]. Put plainly: KINOMEscan competition binding. The note with it: compound 10.0 µM.
Test [11] has as its system EGFR (human), P00533 [P753S; 747-752 del]. The test can be described thus: KINOMEscan competition binding. As to conditions: compound 10.0 µM.
The target in another test is GAK (human) (UniProt O14976). Put plainly: KINOMEscan competition binding. The note with it: compound 10.0 µM.
The target of a further test is IGF1R (human) (UniProt P08069). Put plainly: KINOMEscan competition binding. The note with it: compound 10.0 µM.
The next test concerns the target INSRR (human) (UniProt P14616). Put plainly: KINOMEscan competition binding. The note with it: compound 10.0 µM.
The target in the next test is MYLK (human) (UniProt Q15746). The test can be described thus: KINOMEscan competition binding. The note with it: compound 10.0 µM.
For the next test, the target named is PLK1 (human) (UniProt P53350). Put plainly: KINOMEscan competition binding. As to conditions: compound 10.0 µM.
The target in another test is PLK3 (human) (UniProt Q9H4B4). The test can be described thus: KINOMEscan competition binding. As to conditions: compound 10.0 µM.
The next test concerns the target PLK4 (human) (UniProt O00444). Put plainly: KINOMEscan competition binding. As to conditions: compound 10.0 µM.
The target of another test is PTK2 (human) (UniProt Q05397). Put plainly: KINOMEscan competition binding. The note with it: compound 10.0 µM.
The target in a further test is PTK2B (human) (UniProt Q14289). The test can be described thus: KINOMEscan competition binding. The note with it: compound 10.0 µM.
For a further test, the target named is RPS6KA2 KD2 (human) (UniProt Q15349). Put plainly: KINOMEscan competition binding. As to conditions: compound 10.0 µM.
Sequence of RPS6KA2 KD2 (human) (Q15349 whole entry, looked up): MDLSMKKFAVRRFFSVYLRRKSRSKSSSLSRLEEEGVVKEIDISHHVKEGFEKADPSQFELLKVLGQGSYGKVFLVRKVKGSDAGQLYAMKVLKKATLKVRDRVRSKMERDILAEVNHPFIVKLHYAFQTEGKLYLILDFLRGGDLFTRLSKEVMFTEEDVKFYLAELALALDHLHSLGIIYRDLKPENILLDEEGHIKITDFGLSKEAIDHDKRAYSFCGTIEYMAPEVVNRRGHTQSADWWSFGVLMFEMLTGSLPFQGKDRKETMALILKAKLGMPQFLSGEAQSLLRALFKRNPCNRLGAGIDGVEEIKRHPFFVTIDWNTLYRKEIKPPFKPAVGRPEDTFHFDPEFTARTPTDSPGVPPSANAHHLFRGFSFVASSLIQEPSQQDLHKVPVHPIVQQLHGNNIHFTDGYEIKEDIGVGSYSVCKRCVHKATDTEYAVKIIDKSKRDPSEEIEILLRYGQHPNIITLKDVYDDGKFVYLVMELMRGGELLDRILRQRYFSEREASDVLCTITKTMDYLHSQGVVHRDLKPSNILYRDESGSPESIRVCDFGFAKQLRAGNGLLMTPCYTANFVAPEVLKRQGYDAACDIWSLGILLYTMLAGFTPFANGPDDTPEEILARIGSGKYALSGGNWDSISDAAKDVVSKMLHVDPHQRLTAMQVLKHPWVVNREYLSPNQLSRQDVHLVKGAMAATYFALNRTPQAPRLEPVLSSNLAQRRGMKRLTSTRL
The target in another test is SLK (human) (UniProt Q9H2G2). The test can be described thus: KINOMEscan competition binding. The note with it: compound 10.0 µM.
The target of the next test is STK33 (human) (UniProt Q9BYT3). Put plainly: KINOMEscan competition binding. The note with it: compound 10.0 µM.
Test [12] deals with TTK (human) (UniProt P33981). Put plainly: KINOMEscan competition binding. The note with it: for kinase still bound, per cent of control: compound 10.0 µM.
Sequence of TTK (human) (P33981 whole entry, looked up): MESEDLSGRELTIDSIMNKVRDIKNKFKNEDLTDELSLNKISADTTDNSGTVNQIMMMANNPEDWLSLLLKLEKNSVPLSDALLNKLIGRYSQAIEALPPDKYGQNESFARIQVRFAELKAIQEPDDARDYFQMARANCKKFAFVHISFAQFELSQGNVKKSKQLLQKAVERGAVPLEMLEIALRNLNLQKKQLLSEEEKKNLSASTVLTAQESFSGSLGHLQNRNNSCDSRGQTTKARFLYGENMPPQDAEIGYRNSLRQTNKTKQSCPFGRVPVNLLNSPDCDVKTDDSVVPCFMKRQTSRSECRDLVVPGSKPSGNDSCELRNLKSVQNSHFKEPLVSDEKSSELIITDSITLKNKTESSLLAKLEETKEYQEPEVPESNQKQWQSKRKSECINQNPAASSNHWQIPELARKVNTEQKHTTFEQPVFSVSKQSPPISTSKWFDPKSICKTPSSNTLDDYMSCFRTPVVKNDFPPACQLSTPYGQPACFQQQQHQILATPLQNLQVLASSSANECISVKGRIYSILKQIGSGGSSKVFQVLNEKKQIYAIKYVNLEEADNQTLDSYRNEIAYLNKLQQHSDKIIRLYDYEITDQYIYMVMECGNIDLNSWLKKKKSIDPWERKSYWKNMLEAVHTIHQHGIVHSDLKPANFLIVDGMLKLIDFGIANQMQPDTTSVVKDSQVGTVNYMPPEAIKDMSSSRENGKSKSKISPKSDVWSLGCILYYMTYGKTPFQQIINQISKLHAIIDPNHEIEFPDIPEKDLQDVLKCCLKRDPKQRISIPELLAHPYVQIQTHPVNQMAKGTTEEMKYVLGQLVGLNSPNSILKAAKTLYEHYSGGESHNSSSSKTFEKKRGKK
For another test, the target named is ULK2 (human) (UniProt Q8IYT8). Put plainly: KINOMEscan competition binding. As to conditions: compound 10.0 µM.
Another test deals with CAMK1D (human) (UniProt Q8IU85). Put plainly: KINOMEscan competition binding. As to conditions: compound 10.0 µM.
A further test has as its target CAMK2A (human) (UniProt Q9UQM7). Put plainly: KINOMEscan competition binding. As to conditions: compound 10.0 µM.
The target of the next test is CAMK2G (human) (UniProt Q13555). The test can be described thus: KINOMEscan competition binding. As to conditions: compound 10.0 µM.
Sequence of CAMK2G (human) (Q13555 whole entry, looked up): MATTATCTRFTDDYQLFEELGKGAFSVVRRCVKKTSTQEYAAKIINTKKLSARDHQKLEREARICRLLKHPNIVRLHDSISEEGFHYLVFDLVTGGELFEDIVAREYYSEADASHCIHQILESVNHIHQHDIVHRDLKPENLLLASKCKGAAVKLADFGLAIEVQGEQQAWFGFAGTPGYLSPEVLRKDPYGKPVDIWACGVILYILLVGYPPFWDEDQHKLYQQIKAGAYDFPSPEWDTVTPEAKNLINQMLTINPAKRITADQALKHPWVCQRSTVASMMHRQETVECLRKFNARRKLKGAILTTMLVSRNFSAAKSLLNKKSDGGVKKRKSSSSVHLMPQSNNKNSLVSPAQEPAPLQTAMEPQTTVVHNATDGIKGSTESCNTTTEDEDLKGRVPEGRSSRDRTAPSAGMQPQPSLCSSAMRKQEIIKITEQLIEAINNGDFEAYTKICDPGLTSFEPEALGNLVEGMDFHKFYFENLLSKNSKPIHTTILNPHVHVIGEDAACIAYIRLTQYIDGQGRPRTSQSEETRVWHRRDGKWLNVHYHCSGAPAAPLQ
In another test the target is CLK1 (human) (UniProt P49759). The test can be described thus: KINOMEscan competition binding. As to conditions: compound 10.0 µM.
A further test deals with CLK2 (human) (UniProt P49760). The test can be described thus: KINOMEscan competition binding. The note with it: compound 10.0 µM.
In a further test the target is DAPK1 (human) (UniProt P53355). Put plainly: KINOMEscan competition binding. As to conditions: compound 10.0 µM.
The target of a further test is DAPK3 (human) (UniProt O43293). The test can be described thus: KINOMEscan competition binding. As to conditions: compound 10.0 µM.
The target in a further test is FER (human) (UniProt P16591). The test can be described thus: KINOMEscan competition binding. The note with it: compound 10.0 µM.
In test [13] the target is JAK1 JH2 pseudokinase (human) (UniProt P23458). Put plainly: KINOMEscan competition binding. As to conditions: compound 10.0 µM.
The target of another test is PRKD3 (human) (UniProt O94806). The test can be described thus: KINOMEscan competition binding. The note with it: compound 10.0 µM.
The next test deals with STK10 (human) (UniProt O94804). Put plainly: KINOMEscan competition binding. As to conditions: compound 10.0 µM.
In test [14] the target is TTK (human) (UniProt P33981). Put plainly: SelectScreen, TR FRET. (In general: In TR-FRET formats the signal depends on donor and acceptor labels being close together.)
Another test concerns the target CAMK2D (human) (UniProt Q13557). The test can be described thus: KINOMEscan competition binding. The note with it: compound 10.0 µM.
The next test deals with PIK3C2B (human) (UniProt O00750). Put plainly: KINOMEscan competition binding. As to conditions: compound 10.0 µM.

Sequence of DCLK2 (human) (Q8N568 whole entry, looked up): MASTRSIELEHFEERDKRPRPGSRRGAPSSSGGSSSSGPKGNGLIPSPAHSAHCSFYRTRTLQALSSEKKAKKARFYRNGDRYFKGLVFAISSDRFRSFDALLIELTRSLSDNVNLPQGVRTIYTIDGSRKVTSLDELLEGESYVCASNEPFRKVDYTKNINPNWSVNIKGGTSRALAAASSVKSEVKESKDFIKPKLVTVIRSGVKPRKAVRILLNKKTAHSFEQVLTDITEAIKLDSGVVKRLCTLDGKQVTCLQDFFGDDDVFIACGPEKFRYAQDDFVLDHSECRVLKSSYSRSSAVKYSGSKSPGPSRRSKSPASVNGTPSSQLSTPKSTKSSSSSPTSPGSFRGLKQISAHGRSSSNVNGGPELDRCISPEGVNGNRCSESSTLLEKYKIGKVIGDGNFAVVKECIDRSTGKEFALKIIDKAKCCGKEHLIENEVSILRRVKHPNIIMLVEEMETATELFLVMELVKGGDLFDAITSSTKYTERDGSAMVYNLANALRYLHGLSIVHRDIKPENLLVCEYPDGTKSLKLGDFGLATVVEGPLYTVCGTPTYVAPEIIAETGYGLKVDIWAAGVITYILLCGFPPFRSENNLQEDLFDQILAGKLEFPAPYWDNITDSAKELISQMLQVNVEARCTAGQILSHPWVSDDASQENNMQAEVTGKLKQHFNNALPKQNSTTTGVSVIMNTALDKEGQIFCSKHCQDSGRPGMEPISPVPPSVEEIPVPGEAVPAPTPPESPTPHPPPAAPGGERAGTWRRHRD
Sequence of RPS6KA6 KD2 (human) (Q9UK32 whole entry, looked up): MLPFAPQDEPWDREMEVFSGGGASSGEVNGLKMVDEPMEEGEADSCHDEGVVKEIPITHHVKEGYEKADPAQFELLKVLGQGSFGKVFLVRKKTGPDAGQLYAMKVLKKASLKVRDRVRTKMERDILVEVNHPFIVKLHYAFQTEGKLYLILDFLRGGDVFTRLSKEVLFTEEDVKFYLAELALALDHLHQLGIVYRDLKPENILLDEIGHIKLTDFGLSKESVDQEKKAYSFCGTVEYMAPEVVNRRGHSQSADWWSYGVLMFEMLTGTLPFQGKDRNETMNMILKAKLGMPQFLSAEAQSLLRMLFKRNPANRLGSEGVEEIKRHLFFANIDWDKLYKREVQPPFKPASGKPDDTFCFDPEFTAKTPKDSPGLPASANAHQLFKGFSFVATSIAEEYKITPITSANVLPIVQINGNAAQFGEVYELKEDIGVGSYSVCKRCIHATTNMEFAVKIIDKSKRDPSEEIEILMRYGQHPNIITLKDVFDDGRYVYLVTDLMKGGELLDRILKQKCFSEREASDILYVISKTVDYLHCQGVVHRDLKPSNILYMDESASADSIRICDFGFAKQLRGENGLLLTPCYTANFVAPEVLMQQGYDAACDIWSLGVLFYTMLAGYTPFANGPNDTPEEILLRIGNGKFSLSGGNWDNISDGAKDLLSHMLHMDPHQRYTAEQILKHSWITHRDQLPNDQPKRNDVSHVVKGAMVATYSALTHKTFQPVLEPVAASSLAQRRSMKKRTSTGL
Sequence of DCLK1 (human) (O15075 whole entry, looked up): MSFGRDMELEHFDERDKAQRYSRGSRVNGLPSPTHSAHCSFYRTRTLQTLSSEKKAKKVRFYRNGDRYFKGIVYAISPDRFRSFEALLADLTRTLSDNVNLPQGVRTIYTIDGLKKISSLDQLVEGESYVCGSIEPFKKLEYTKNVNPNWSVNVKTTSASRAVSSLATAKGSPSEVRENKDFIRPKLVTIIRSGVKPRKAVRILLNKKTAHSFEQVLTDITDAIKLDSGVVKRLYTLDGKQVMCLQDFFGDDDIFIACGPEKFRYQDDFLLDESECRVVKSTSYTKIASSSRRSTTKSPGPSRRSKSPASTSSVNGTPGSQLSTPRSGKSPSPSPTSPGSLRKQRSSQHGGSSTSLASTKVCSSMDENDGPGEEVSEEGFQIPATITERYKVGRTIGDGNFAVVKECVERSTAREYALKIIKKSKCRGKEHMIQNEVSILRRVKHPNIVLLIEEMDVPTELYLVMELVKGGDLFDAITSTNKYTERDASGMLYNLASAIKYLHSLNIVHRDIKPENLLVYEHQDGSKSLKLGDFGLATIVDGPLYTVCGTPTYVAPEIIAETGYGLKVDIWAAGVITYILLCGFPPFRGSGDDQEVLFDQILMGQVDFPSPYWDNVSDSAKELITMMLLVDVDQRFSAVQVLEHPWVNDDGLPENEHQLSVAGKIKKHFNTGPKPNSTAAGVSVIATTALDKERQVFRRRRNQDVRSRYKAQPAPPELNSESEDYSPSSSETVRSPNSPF

Consider `CC(C)Oc1cc(N2CCN(C)CC2)ccc1Nc1ncc2c(n1)N(C)c1ccccc1C(=O)N2`, for which the kinase still bound, per cent of control in test [1] was 26%; at DCLK1 (human), 1.2%; on DCLK2 (human) it was 5.3%; on DCLK3 (human) it was 8.1%; at FLT3 (human) it was 10%; in [2] it was 14%. The kinase still bound, per cent of control in test [3] amounted to 2.2%; in test [4] it was 2.4%; in test [5], 10%; in test [6], 0.6%; on MAPK7 (human), 29%; on MYLK4 (human), 2.1%. The kinase still bound, per cent of control is 22% on PIP5K1A (human); 2.6% at PTK6 (human); 14% at RPS6KA1 KD2 (human); 21% at RPS6KA6 KD2 (human); 6.5% at TNK2 (human).

On to `CNS(=O)(=O)c1ccc(-c2ccc(C=C3C(=O)NC(=O)NC3=O)o2)cc1`, for which the residual activity at CDK11A (human) came out at 28%.

Consider `COc1cc(N2CCC(N3CCN(C)CC3)CC2)ccc1Nc1ncc2c(n1)N(C1CCCC1)C(C)CC(=O)N2C` (configuration not stated), for which the kinase still bound, per cent of control was 5% at ALK (human); 33% on CAMKK2 (human); 5.2% on DCLK1 (human); 30% at DCLK2 (human); 34% in test [7]; 27% in test [8]. Moreover, the kinase still bound, per cent of control in [9] was found to be 32%; in [10] it was 30%; in test [11] it was 34%; at GAK (human), 1.6%; at IGF1R (human) it was 29%; on INSRR (human) it was 33%. Besides, the kinase still bound, per cent of control at MYLK (human) came to 11%; on PLK1 (human) it was 7.2%; at PLK3 (human) it was 5.9%; on PLK4 (human), 26%; on PTK2 (human), 1.2%; at PTK2B (human), 4.2%. The kinase still bound, per cent of control was determined as 16% on RPS6KA2 KD2 (human); 33% at RPS6KA6 KD2 (human); 5.6% at SLK (human); 9% at STK33 (human); 2% at TTK (human) [12]; 24% on ULK2 (human).

As for `COc1cc(C(=O)NC2CCN(C)CC2)ccc1Nc1ncc2c(n1)N(C1CCCC1)C(C)CC(=O)N2C` (configuration not stated), the kinase still bound, per cent of control at ALK (human) worked out at 6.2%; at CAMK1D (human), 17%; on CAMK2A (human) it was 21%; at CAMK2G (human) it was 34%; at CAMKK2 (human) it was 24%; at CLK1 (human), 18%. Also, the kinase still bound, per cent of control at CLK2 (human) turned out to be 6.2%; at DAPK1 (human), 26%; on DAPK3 (human), 17%; at DCLK1 (human), 4%; at DCLK2 (human), 19%; at FER (human) it was 31%. The kinase still bound, per cent of control at GAK (human) was 3.8%; on IGF1R (human), 32%; on INSRR (human), 26%; in test [13], 22%; on MYLK (human) it was 2.8%; at PLK1 (human), 19%. Also, the kinase still bound, per cent of control was 0% on PLK3 (human); 32% at PRKD3 (human); 0.4% on PTK2 (human); 13% at PTK2B (human); 22% on RPS6KA1 KD2 (human); 5.8% at RPS6KA2 KD2 (human). The kinase still bound, per cent of control was determined as 12% at RPS6KA6 KD2 (human); 1.4% on SLK (human); 29% on STK10 (human); 3.6% on STK33 (human); 4.6% at TTK (human) [12]. On TTK (human) [12], the Kd was 1.43 µM. Besides, the half-inhibitory concentration (IC50) against TTK (human) [14] turned out to be 5.04 µM.

On to `Nc1cnc(/C=C/c2ccc(-c3ccc(S(N)(=O)=O)cc3)o2)cn1`, for which the kinase still bound, per cent of control came out at 31% on CAMK2D (human), 34% at CAMK2G (human), 28% on CAMKK2 (human) and 31% at PIK3C2B (human).

The residual activity is what remains of the control signal, in per cent. Broadly, the Kd is the equilibrium constant for the complex coming apart. Low values mean tighter binding, high ones weaker binding. A word on the IC50: it is the concentration that gives 50% inhibition. Low values mean higher potency, high ones lower potency.
